Data as given in patent publication EP0156347A2, “Glycosides of resofurin derivatives, method for their preparation and their use in the determination of the activity of glycosidases” (BOEHRINGER MANNHEIM GMBH, priority 1984, dated 1985).

Columns and labels:
Assay type in all cases: biochemical
[1] = system: α-Amylase; assay: Determination of α-Amylase activity with reagent paper (Beispiel 21); settings: filter paper soaked with substrate in Citratpuffer pH 6; sample with amylase plus α- and ß-Glucosidase; after a few minutes
Source text: Bestimmung der α-Amylase-Aktivität
Filterpapier wird mit Resorufin-maltoheptaosid (hergestellt gemäß Beispiel 17), gelöst in Citratpuffer, pH 6, getränkt. Das so ernaltene Reagenzpapier wird nacheinander mit der d-Amylase enthaltenden Probe sowie mit a- und ß-Glucosidase versetzt.
Mit Hilfe von Proben mit bekannter d-Amylase-Konzentration läßt sicn eine Eichkurve ermitteln, anhand derer der uhbekannte d-Amylase-Genalt einer Probe bestimmt werden Kann.

[2] = biological target: ß-D-Galaktosidase (Escherichia coli, UniProt P00722); assay: Kinetics of the enzymatic hydrolysis (Michaelis-Menten)
ß-D-Galaktosidase, sequence (P00722 2-1024): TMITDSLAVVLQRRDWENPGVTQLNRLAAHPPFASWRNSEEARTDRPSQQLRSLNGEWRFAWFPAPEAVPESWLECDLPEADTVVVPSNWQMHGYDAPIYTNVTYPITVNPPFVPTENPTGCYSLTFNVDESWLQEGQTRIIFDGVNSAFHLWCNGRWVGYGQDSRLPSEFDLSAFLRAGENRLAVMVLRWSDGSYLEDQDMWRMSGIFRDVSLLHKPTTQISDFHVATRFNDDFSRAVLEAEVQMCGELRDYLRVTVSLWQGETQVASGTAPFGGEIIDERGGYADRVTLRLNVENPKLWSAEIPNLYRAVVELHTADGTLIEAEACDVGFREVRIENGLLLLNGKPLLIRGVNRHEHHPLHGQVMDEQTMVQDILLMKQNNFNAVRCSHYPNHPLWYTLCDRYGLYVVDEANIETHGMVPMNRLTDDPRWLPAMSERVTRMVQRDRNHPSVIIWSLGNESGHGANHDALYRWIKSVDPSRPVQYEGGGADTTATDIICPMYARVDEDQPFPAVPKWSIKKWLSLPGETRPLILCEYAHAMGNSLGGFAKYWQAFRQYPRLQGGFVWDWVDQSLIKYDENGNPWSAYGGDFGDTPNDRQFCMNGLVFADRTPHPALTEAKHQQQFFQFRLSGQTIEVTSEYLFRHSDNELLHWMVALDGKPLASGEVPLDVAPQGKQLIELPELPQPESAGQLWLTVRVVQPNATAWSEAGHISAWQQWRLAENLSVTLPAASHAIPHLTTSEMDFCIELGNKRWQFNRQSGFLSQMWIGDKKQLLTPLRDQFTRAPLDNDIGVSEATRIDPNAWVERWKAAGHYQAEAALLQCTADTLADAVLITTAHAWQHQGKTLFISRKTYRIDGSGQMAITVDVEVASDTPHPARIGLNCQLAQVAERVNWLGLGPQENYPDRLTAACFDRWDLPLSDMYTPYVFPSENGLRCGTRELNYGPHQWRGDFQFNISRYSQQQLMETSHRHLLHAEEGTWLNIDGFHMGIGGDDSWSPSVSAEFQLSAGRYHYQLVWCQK
Source text: Bei der Synthese der Glycoside der Resorufin-Derivate der allgemeinen Formel II entstehen nicht-fluoreszierende Verbindungen, aus denen durch enzymatische Spaltung mit Hilfe der entsprechenden Glycosidasen wieder die fluoreszierenden Resorufin-Derivate freigesetzt werden. Die erfindungsgemäßen fluorogenen Resorufin-nerivate besitzen im Vergleich zu den bisher bekannten Glycosiden anderer chromogener bzw. fluorogener Gruppen sehr vorteilhafte Eigenschaften. Als monosubstituierte Derivate weisen sie eine Kinetik der enzymatischen Hydrolyse auf, die sehr einfach durch die Michaelis-Menten-Beziehung beschrieben werden kann. Für das Resorufin-ß-D-galactopyranosid gilt beispielsweise eine Michaelis-Konstante KM = 0,38 mmol/1. Die Hemmung dieser Hydrolyse durch das natürliche Substrat Lactose ist kompetitiv, so daß für bestimmte Untersuchungen der spezifische Umsatz von Glycosiden der Resorufin-Derivate durch Zugabe von natürlichen Glycosiden, wie Lactose im Falle der ß-D-Galaktosidase, definiert und reversibel verändert werden kann.

[3] = biological target: T1, freie ß-D-Galactosidase (Escherichia coli, UniProt P00722); assay: Determination of the activity of free ß-D-Galactosidase, photometric at 578 nm (Beispiel 20); settings: 0,8 mmol/l substrate, 950 ul Reagenslösung + 50 ul Enzymlösung (ca. 0,08 U/ml), 37° C
T1 construct: purchased
T1 sequence (P00722 2-1024): as above
Description: (§1) Bestimmung der Aktivität freier und konjugierter ß-D-Galactosidase
(§2) Reagenslösung: • In vorstehend beschriebener Pufferlösung werden 0,8 mmol/1 Resorufin-ß-D-galactopyranosid gelöst.
Enzymlösung: • Handelsübliche ß-D-Galactosidase aus Escherichia coli wird in Puffer gelöst. Die Aktivität dieser Lösung beträgt ca. 0,08 U/ml (bezogen auf die Hersteller-Angaben).
(§3) Die Messung erfolgt photometrisch bei 578 nm. 950 ul Reagenslösung werden jeweils in einer 1-cm-Küvette bei 37 °C mit 50 ul Enzymlösung bzw. mit 50 ul Enzym-Konjugat-Lösung vermischt. Als Maß für die Reaktion wird der Extinktionsanstieg pro Zeiteinheit in [mExt/min] ermittelt.

[4] = biological target: T2, ß-D-Galactosidase (Escherichia coli, UniProt P00722); assay: Determination of ß-D-Galactosidase activity, photometric at 579 nm (Beispiel 18); parameters: purchased; settings: Extinktionsanstieg pro Zeiteinheit, 950 ul Reagens + 50 ul Enzymlösung (ca. 0,08 U/ml), 37° C, pH 7,3, substrate 0,8 / 3,5 / 1,0 mmol/l in Reagens 1 / 2 / 3
T2 sequence (P00722 2-1024): as above
Source text: Bestimmung der Aktivität der ß-D-Galactosidase
In der vorstehend beschriebenen Pufferlösung werden 0,8 mmol/1 Resorufin-ß-D-galactopyranosid gelöst.
In der vorstehend beschriebenen Pufferlösung werden 3,5 mmol/1 Resorufin-9-carbonsäure-ß-D-galactopyranosid gelöst.
In der vorstehend beschriebenen Pufferlösung werden 1,0 mmol/1 Resorufin-9-carbonsäuremethylester-ß-D-galactopyranosid gelöst.
Handelsübliche ß-D-Galactosidase aus Escherichia coli wird in der vorstehend genannten Pufferlösung gelöst. Die AKtivität dieser Lösung beträgt ca. 0,08 U/ml (bezogen auf die Hersteller-Angaben).
Die Messung erfolgt photometrisch bei 579 nm.
950 ul Reagens werden in einer 1-cm-Küvette bei 37° C mit 50 ul Enzymlösung vermischt. Als Maß für die Reaktion wird der Extinktionsanstieg pro Zeiteinneit in [mExt/min] ermittelt. Er wird berechnet aus der gemessenen Extinktion durch Division mit der ReaKtionszeit.

[5] = biological target: T2, ß-D-Galactosidase; assay: Detection of ß-D-Galactosidase with an indicator film / test strip (Beispiel 19); settings: test strip containing the substrate, dipped in ß-D-Galactosidase solution; 2 Minuten bei Raumtemperatur
Description: Nachweis von ß-D-Galactosidase mit Hilfe eines Indlkatorfilms
Zu einer nomogenen Masse werden verarbeitet: • 5 ml einer wäßrigen Lösung mit 0,5 M Kaliumphosphat und • 0,05 M Magnesiumchlorid, pH 7,3 . • 0,13 g Natriumalginat • 8 g einer 50 %igen Dispersion von Polyvinylpropionat • 10 g Kieselgel • 12 ml Wasser • 0,4 g Triton X-100 • 50 mg Resorufin-ß-D-galactopyranosid, in 5 ml Methanol gelöst.
Diese Masse wird auf eine 0,1 mm starke Polycarbonatfolie (poKalon, Fa. Lonza) mit einer Spaltbreite von 0,2 mm aufgetragen. Die Beschichtung wird bei 50° C getrocknet und danach in Stücke von 6 auf 6 mm geschnitten. Diese werden mit Hilfe von Klebeband auf eine 400 um starke Polystyrolfolie aufgeklebt.
Die so erhaltenen Teststreifen werden kurze Zeit in die zu prüfende, ß-D-Galactosidase enthaltende Lösung getaucht. […] Mit Hilfe von Testlösungen mit einem bestimmten, bekannten ß-D-Galactosidase-Gehalt kann man eine Farbskala erhalten, anhand derer der unbekannte Genalt an ß-D-Galactosidase in einer Probe ermittelt werden kann.

[6] = biological target: ß-D-Galactosidase-Antikörper-Konjugat (Escherichia coli, UniProt P00722); assay: Determination of the activity of conjugated ß-D-Galactosidase, photometric at 578 nm (Beispiel 20); settings: 0,8 mmol/l substrate, 950 ul Reagenslösung + 50 ul Enzym-Konjugat-Lösung, 37° C
ß-D-Galactosidase-Antikörper-Konjugat, sequence (P00722 2-1024): as above
Source text: as §1, §2
Enzym-Konjugat-Lösung: • Verwendet wird ein ß-D-Galactosidase-Antikörper-Präparat. Die Herstellung solcher Enzym-Antikörper-Konjugate ist bekannt. Sie ist beispielsweise in Biochem. Biophys. Acta 612, 40 - 49 (1980) beschrieben. Das Präparat wird in Puffer so verdünnt, daß sich eine mit der oben beschriebenen Enzymlösung ungefähr vergleichbare Aktivität ergibt.
as §3

## O=c1ccc2nc3ccc(OC4OC(CO)C(OC5OC(CO)C(OC6OC(CO)C(OC7OC(CO)C(OC8OC(CO)C(OC9OC(CO)C(OC%10OC(CO)C(O)C(O)C%10O)C(O)C9O)C(O)C8O)C(O)C7O)C(O)C6O)C(O)C5O)C(O)C4O)cc3oc-2c1 (stereo not drawn) [Beispiel 17, Resorufin-maltoheptaosid]
[1]
  Rotfärbung: deutlich sicntbare Rotfärbung

## OC[C@H]1O[C@@H](O[C@H]2[C@H](O)[C@@H](O)C(O)O[C@@H]2CO)[C@H](O)[C@@H](O)[C@H]1O (stereo partly drawn) [Lactose, reference compound]
[2]; inhibition of the hydrolysis of Resorufin-ß-D-galactopyranosid by the natural substrate
  Hemmung dieser Hydrolyse: kompetitiv

## O=c1ccc2nc3ccc(O[C@@H]4O[C@H](CO)[C@H](O)[C@H](O)[C@H]4O)cc3oc-2c1 [Reagens 1, Resorufin-ß-D-galactopyranosid]
[3]
  Extinktionsanstieg pro Zeiteinheit, Reaktion mit der freien ß-D-Galactosidase: 85 mExt/min
[4]
  Reaktion: 85 mExt/min
[5]
  Reaktionsfarbe: rote Reaktionsfarbe
[2]; read-out: Michaelis-Konstante KM, enzymatic hydrolysis of the substrate
  Km: 380 µM
[6]
  Extinktionsanstieg pro Zeiteinheit, Reaktion mit ß-D-Galactosidase-Antikörper-Konjugat: 92 mExt/min

## Resorufin-1-carbonsäuremethylester [Beispiel 3]
[4]
  Reaktion: 76 mExt/min

## Resorufin-ß-D-glucosid [Beispiel 2]
[4]
  Reaktion: 46 mExt/min
